This note sets out measurements from US12458650B2, “Urination disorder-improving agent” (ASKA Pharmaceutical Co., Ltd., priority 2019, dated 2025).

Assay [1] relates to uterine weight associated with rat deciduoma formation. The assay can be described thus: Test Example 5: antiprogesterone activity, uterine weight associated with rat deciduoma formation in ovariectomized rats. The following applies: 192 h, 8 days, read-out: inhibition rate of uterine weight increase (antiprogesterone action). In kind it is in vivo. The method, then:
For the compound A and the compound D (mifepristone), the antiprogesterone activity was measured. Specifically, a sex hormone and a test substance were repeatedly administered to ovariectomized rats as a test system to examine the antiprogesterone action (antiprogesterone activity) based on, as an index, the fluctuation of the uterine weight (the inhibitory action relative to the increase of the weight) associated with rat deciduoma formation.
More specifically, rats (female, Crl:CD(SD), 5-week-old: Charles River Laboratories Japan, Inc.) were subjected to ovariectomy, and from one (1) week after the ovariectomy, a high dose estrone or 5 μg/one animal was hypodermically administered to the rats once a day for three (3) days. From the day after one day rest period, the rats received, once a day over eight (8) days, hypodermic administration of a low dose estrone (1 μg/one animal), intramuscular administration of progesterone (6 mg/kg), and oral administration of a test substance. In the middle of the administration, on Day 4 of the start of administration, the rats were subjected to a stimulation treatment of decidualization reaction to the right uterus. The day after the final administration, the uterine weight (right uterine body) was measured (n=6). Group E was subjected to ovariectomy and a stimulation treatment of decidualization reaction but was not subjected to a hormone treatment.
The test substances and the dosage in the test system (ovariectomized rats) are as follows. • Group E: rats with ovariectomy without hormone treatment • 0.5 v/v % Polysorbate 80 solution, 10 mL/kg (n=6) • Solvent group (control group): 0.5 v/v % Polysorbate 80 solution, 10 mL/kg (n=6) • Group A3: Compound A, 3 mg/kg (n=6) • Group A10: Compound A, 10 mg/kg (n=6) • Group A30: Compound A, 30 mg/kg (n=6) • Group D: Compound D (mifepristone), 3 mg/kg (n=6)

For assay [2], the system named is lower urinary tract obstruction model of rats. The assay can be described thus: Test Example 2: urination function in male rat lower urinary tract obstruction model (cystometry under no anesthesia). Format: in vivo. The following applies: Group A: 10 mg/kg oral once a day, 14 days, in comparison with Group C (dutasteride 0.5 mg/kg), FIG. 7, 8. The source says: A lower urinary tract obstruction model of rats was used as a test system. A test substance was orally administered to the lower urinary tract obstruction model repeatedly over 14 days to examine the action on the urination function in the lower urinary tract obstruction model. The lower urinary tract obstruction model is not a benign prostatic hyperplasia model with enlarged prostate.
More specifically, the rats (male, Crl:CD(SD), 8-week-old; Charles River Laboratories Japan, Inc.) were operated to form lower urinary tract obstruction and repeatedly received oral administration of the test substance at a frequency of once a day over 14 days. After the completion of the administration, each rat was subjected to bladder catheterization under anesthesia and cystometry under no anesthesia and was evaluated for the residual urine volume and the urination efficiency.
The test substances and the dosage in the test system (male rats with lower urinary tract obstruction) are as follows. • Solvent group (control group): 0.5 v/v % Polysorbate 80 solution, 10 mL/kg (n=8) • Group A: Compound A, 10 mg/kg (n=12) • Group C: Compound C (dutasteride), 0.5 mg/kg (n=11) • Dutasteride is a 5a reductase inhibitor.

With `CC(=O)O[C@]1(C(C)=O)C[C@@H](O)[C@H]2[C@@H]3C=C(Cl)C4=CC(=O)OC[C@]4(C)[C@H]3CC[C@@]21C` [Compound A, 17α-acetoxy-6-chloro-15β-hydroxy-2-oxa-4,6-pregnadiene-3,20-dione], in assay [1] (Group A3: 3 mg/kg oral once a day, not significant), the inhibition at 3 mg/kg came to 15%. For the same compound, the inhibition at 10 mg/kg in assay [1] (Group A10: 10 mg/kg oral once a day, significant) worked out at 63%. Further, the inhibition at 30 mg/kg in assay [1] (Group A30: 30 mg/kg oral once a day, significant) worked out at 83.3%. Also, in assay [2], the “urination function (the residual urine volume, the urination efficiency)” value is given as “strong improvement action”.

Broadly, the inhibition is the share of the control response that was lost under treatment.
